Source: the NIST ThermoML archive (doi:10.1016/j.fluid.2013.01.002)

Legend:
[1] = refractive index (Na D-line) (dimensionless); settings: 298.15 K; 101.33 kPa; Liquid; Standard Abbe refractometry
[2] = 298.15 K; 101.33 kPa; Liquid; Vibrating tube method
[3] = refractive index (Na D-line) (dimensionless); xn = mol fraction of the nth substance listed; settings: 298.15 K, 101 kPa, Liquid, Standard Abbe refractometry
[4] = xn = mol fraction of the nth substance listed; settings: 298.15 K, 101 kPa, Liquid, Vibrating tube method

CCCCCCCCCCC [undecane]
Settings	mass density [kg/m3]	refractive index
[1]	–	1.415
[2]	736.73	–

CCCCCCCCN(CCCCCCCC)CCCCCCCC [trioctylamine]
Settings	mass density [kg/m3]	refractive index
[1]	–	1.4476
[2]	807.9	–

CCCCCCCCCCCCO [dodecan-1-ol]
Settings	mass density [kg/m3]	refractive index
[1]	–	1.4407
[2]	830.37	–

CCCCCCCCN(CCCCCCCC)CCCCCCCC [trioctylamine] + CCCCCCCCCCCC
Settings	mass density, [4] [kg/m3]	refractive index, [3]
x1 = 0.0501	751.32	1.4222
x1 = 0.1	756.64	1.4249
x1 = 0.1998	765.98	1.4287
x1 = 0.3	773.95	1.4323
x1 = 0.4	780.79	1.4354
x1 = 0.5001	786.75	1.4381
x1 = 0.6023	792.12	1.4403
x1 = 0.7001	796.7	1.4426
x1 = 0.8025	801	1.4444
x1 = 0.9002	804.65	1.4461
x1 = 0.9499	806.35	1.4468

CCCCCCCCN(CCCCCCCC)CCCCCCCC [trioctylamine] + CCCCCCCCCCC
Settings	mass density, [4] [kg/m3]	refractive index, [3]
x1 = 0.05	743.91	1.4176
x1 = 0.1	750.33	1.4199
x1 = 0.2017	761.55	1.4243
x1 = 0.3001	770.56	1.4285
x1 = 0.4002	778.34	1.4319
x1 = 0.4997	785.01	1.4351
x1 = 0.6003	790.89	1.438
x1 = 0.6989	795.96	1.4407
x1 = 0.7996	800.52	1.4434
x1 = 0.9003	804.51	1.4455
x1 = 0.9497	806.25	1.4466

CCCCCCCCN(CCCCCCCC)CCCCCCCC [trioctylamine] + CCCCCCCCCCCCO
Settings	mass density, [4] [kg/m3]	refractive index, [3]
x1 = 0.0498	828.8	1.4416
x1 = 0.1011	827.31	1.4424
x1 = 0.2014	824.49	1.4437
x1 = 0.3012	821.97	1.4447
x1 = 0.4001	819.63	1.4455
x1 = 0.5	817.37	1.4461
x1 = 0.6005	815.19	1.4465
x1 = 0.6995	813.14	1.4469
x1 = 0.799	811.21	1.4473
x1 = 0.8999	809.43	1.4475
x1 = 0.9504	808.63	1.4476

CCCCCCCCCCCC [dodecane]
Settings	mass density [kg/m3]	refractive index
[1]	–	1.4195
[2]	745.52	–
